Measured values: patent publication US12377112B2, “Methods of treating neurocognitive disorders, chronic pain and reducing inflammation” (priority 2019, dated 2025)
Marks after values point to notes of the source that are not given here.

Test system: male C57BL/6 mice
Assay: Chronic constriction injury (CCI) model of neuropathic pain, von Frey paw withdrawal threshold
Type: in vivo, mouse
Protocol: To determine whether psilocybin may alleviate chronic neuropathic pain, various doses of psilocybin were tested in a mouse model of chronic constriction injury (CCI).
Male C57BL/6 mice (age 6-7 weeks, source: Charles River UK) were housed in standard caging in groups of 2-4, with free access to food (5CR4, Purina) and water (except during placement in the test box) on a 12/12 light/dark cycle.
All animals underwent behavioral testing of mechanical allodynia on three consecutive days (Day −2, Day−1 and Day 0) prior to surgery in order to determine the baseline withdrawal thresholds. Briefly, Static mechanical (tactile) allodynia was assessed by measurement of withdrawal threshold using calibrated (force; g) von-Frey monofilaments (Touch-Test Sensory Evaluator; Scientific Marketing Associates) applied to the plantar surface of the hind-paw. The animals were placed in individual Perspex boxes on a raised metal mesh for 30-40 minutes before the test. A series of graduated von Frey hairs (0.07, 0.16, 0.4, 0.6 and 1 g) was applied in sequence with a protocol of 1 second on 1 second off, repeated 10 times. Each hair was applied perpendicularly to the center of the ventral surface of the paw until it slightly bends. The force applied to the hind-paw of the animal to induce 5 responses out of 10 trials was recorded as paw withdrawal threshold (PWT). Three baseline paw withdrawal thresholds were taken on ipsilateral paws. The mean of the last two readings used as the baseline withdrawal threshold.
Subsequently, surgery was performed under anesthesia (Isoflurane mixed with oxygen, 3:1, 2 L/min) to tie three loose ligatures of prolene (7-0, Ethicon) around the sciatic nerve, with 1 mm spacing between each. The nerve was then returned below the muscle layer and the wound closed using absorbable sutures (Vicryl).
Following recovery from surgery, Von Frey assessment of mechanical allodynia was taken on days 19 and 22. Animals were then ranked and randomized (based on a Latin square design) to treatment groups according to the percentage change (compared to pre-surgery baseline) of the mean mechanical withdrawal threshold observed on days 19 and 22. Only those animals showing a PWT percentage change of >50% from pre-surgery baseline were included in the study.
On day 23, the animals were dosed with psilocybin (1, 3 or 10 mg/kg by intraperitoneal injection) or vehicle (10 mL/kg by intraperitoneal injection). Nerve pain medication Pregabalin (15 mg/kg administered orally) was also used as a positive control. Allodynia was then assessed at 0.5, 4 and 24 hours post-treatment timepoint (PTT).

With `CN(C)CCc1c[nH]c2cccc(OP(=O)(O)O)c12` [Psilocybin, psilocybin] the “Force-induced paw withdrawal, mean” value (1 mg/kg IP group, D19-22 Neuropathic baseline (before dosing)) was 0.16 g, the “Force-induced paw withdrawal, mean” value (1 mg/kg IP group, D-2 D-1 Baseline (before surgery and dosing)) was 0.72 g and the “Force-induced paw withdrawal, mean” value (1 mg/kg IP, D23 0.5 hours PTT) was 0.16 g. For the same molecule, the “Force-induced paw withdrawal, mean” value (1 mg/kg IP, D23 4 hours PTT) was 0.16 g, the “Force-induced paw withdrawal, mean” value (1 mg/kg IP, D24 24 hours PTT) was 0.15 g and the “Force-induced paw withdrawal, mean” value (3 mg/kg IP group, D19-22 Neuropathic baseline (before dosing)) was 0.16 g. The “Force-induced paw withdrawal, mean” value (3 mg/kg IP group, D-2 D-1 Baseline (before surgery and dosing)) was 0.68 g, the “Force-induced paw withdrawal, mean” value (3 mg/kg IP, D23 0.5 hours PTT) was 0.22 g and the “Force-induced paw withdrawal, mean” value (3 mg/kg IP, D23 4 hours PTT) was 0.15 g. The “Force-induced paw withdrawal, mean” value (3 mg/kg IP, D24 24 hours PTT) was 0.25 g, the “Force-induced paw withdrawal, mean” value (10 mg/kg IP group, D19-22 Neuropathic baseline (before dosing)) was 0.17 g and the “Force-induced paw withdrawal, mean” value (10 mg/kg IP group, D-2 D-1 Baseline (before surgery and dosing)) was 0.79 g. The “Force-induced paw withdrawal, mean” value (10 mg/kg IP, D23 0.5 hours PTT) was 0.38* g, the “Force-induced paw withdrawal, mean” value (10 mg/kg IP, D23 4 hours PTT) was 0.51* g and the “Force-induced paw withdrawal, mean” value (10 mg/kg IP, D24 24 hours PTT) was 0.25 g.
